Experimental data: patent US20140235643A1, “NOVEL QUINOXALINE INHIBITORS OF PI3K” (GILEAD CALISTOGA LLC, priority 2011, published 2014)

Legend:
PI3Kα (p110α/p85α) = target: T1, PI3Kα (p110α/p85α) (Homo sapiens, UniProt P42336); experiment: PI3K biochemical enzyme assay (Adapta universal kinase assay), p110 alpha/p85 alpha; details: for inhibition at 10 µM / inhibition at 1 µM: read-out: PI3Kα % inhib; for IC50: Table 2, PI3k biochemical assays, read-out: p110α/p85α IC50
T1 construct: purchased Invitrogen
T1 sequence (P42336 whole entry): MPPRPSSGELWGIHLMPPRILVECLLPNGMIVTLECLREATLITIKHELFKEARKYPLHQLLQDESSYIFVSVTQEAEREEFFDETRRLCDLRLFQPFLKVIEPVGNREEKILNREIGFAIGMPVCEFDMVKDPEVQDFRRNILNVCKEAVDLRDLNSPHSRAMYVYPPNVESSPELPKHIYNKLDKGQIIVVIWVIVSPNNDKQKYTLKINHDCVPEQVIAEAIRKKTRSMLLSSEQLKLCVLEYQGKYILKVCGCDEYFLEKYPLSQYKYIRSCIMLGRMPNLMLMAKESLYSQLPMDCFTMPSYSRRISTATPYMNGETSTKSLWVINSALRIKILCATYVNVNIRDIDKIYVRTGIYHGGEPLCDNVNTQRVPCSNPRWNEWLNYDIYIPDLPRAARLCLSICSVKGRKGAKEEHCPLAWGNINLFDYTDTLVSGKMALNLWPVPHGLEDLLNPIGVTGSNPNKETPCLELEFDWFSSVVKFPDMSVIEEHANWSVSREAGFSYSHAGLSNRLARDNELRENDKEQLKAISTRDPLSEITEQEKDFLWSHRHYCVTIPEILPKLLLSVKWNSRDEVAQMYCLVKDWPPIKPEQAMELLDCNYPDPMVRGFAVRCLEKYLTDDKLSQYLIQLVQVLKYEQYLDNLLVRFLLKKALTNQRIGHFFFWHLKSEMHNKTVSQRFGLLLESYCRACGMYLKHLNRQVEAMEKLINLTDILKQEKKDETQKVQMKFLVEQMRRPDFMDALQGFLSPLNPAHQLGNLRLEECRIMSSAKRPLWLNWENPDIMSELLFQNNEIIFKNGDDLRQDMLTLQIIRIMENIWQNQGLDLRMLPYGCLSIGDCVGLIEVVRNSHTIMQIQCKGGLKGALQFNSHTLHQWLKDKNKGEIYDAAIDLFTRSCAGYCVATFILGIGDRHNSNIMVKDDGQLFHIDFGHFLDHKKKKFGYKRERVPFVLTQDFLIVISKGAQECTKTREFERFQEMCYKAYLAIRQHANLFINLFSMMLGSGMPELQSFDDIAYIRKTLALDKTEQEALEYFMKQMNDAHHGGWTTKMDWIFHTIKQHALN
T1 sequence (P27986 whole entry partner): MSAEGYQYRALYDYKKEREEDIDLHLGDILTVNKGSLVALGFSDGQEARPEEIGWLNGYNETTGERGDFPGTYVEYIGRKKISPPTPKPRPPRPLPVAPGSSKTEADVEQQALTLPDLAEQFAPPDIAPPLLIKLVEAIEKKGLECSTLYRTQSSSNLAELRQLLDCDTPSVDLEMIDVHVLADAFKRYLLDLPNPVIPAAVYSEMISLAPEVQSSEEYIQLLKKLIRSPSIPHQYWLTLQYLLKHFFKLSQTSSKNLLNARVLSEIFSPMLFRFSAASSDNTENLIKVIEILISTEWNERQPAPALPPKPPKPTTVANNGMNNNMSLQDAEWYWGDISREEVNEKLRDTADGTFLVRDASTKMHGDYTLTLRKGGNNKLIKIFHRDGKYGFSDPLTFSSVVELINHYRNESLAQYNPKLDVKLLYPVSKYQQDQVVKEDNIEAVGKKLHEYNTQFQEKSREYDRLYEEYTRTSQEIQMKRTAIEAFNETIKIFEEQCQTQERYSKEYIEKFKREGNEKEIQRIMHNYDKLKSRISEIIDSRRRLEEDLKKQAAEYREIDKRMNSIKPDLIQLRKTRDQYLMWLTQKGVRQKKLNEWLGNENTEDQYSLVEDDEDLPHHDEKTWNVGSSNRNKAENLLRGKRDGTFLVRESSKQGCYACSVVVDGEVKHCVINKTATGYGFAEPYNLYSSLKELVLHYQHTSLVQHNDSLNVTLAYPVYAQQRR
Protocol: (§1) This example describes a method of obtaining in vitro activity data concerning the effect of compounds of on various PI3K isoforms. The effect of compounds on the kinase activity of Class I PI3Ks was measured at Invitrogen by using the Adapta® universal kinase assay. It was a homogenous, fluorescent based immunoassay for the detection of ADP produced by the kinase reaction. This assay can be divided into two phases: a kinase reaction phase, and an ADP detection phase. In the kinase reaction phase, all components required for the kinase reaction were added to the well, and the reaction was allowed to incubate for 60 minutes. After the reaction, a detection solution consisting of a europium labeled anti-ADP antibody, an Alexa Fluor® 647 labeled ADP tracer, and EDTA (to stop the kinase reaction) was added to the assay well. ADP formed by the kinase reaction (in the absence of an inhibitor) displaced the Alexa Fluor® 647 labeled ADP tracer from the antibody, resulting in a decrease in the TR-FRET signal.
(§2) ADP formation was determined by calculating the emission ratio from the assay well. The emission ratio was calculated by dividing the intensity of the tracer (acceptor) emission by the intensity of the Eu (donor) emission at 615 nm as shown in the equation below.
(§3) The Test Compounds were screened in 1% DMSO (final) in the well. All Substrate/Kinase Mixtures were diluted to a 2× working concentration in the appropriate Kinase Buffer as described below for the individual kinase:
The 2× p110 alpha/p85 alpha/PIP2:PS mixture was prepared in 50 mM HEPES pH 7.5, 100 mM NaCl, 0.03% CHAPS, 3 mM mgCl2, 1 mM EGTA. The final 10 μL Kinase Reaction consisted of 0.3-1.5 ng p110 alpha/p85 alpha and 50 μM PIP2:PS in 32.5 mM HEPES pH 7.5, 50 mM NaCl, 0.015% CHAPS, 1.5 mM mgCl2, 0.5 mM EGTA. After the 1 hour Kinase Reaction incubation, 5 μL of Detection Mix was added.
(§4) The Detection mix consisted of EDTA (30 mM), Eu-anti-ADP antibody (30 nM) and ADP tracer. All ATP Solutions were diluted to a 4× working concentration in water and used at the Km apparent concentrations for each individual kinase.

PI3Kγ = target: T2, PI3Kγ (Mus musculus, UniProt Q9JHG7); experiment: PI3Kγ-dependent cell-based assay: C5a-mediated AKT phosphorylation in RAW-264 cells; set-up: species or system murine; details: C5a-induced AKT phosphorylation, RAW-264 macrophages
T2 construct: endogenous in cells; host or cells: RAW-264 macrophage cells (ATCC)
T2 sequence (Q9JHG7 whole entry): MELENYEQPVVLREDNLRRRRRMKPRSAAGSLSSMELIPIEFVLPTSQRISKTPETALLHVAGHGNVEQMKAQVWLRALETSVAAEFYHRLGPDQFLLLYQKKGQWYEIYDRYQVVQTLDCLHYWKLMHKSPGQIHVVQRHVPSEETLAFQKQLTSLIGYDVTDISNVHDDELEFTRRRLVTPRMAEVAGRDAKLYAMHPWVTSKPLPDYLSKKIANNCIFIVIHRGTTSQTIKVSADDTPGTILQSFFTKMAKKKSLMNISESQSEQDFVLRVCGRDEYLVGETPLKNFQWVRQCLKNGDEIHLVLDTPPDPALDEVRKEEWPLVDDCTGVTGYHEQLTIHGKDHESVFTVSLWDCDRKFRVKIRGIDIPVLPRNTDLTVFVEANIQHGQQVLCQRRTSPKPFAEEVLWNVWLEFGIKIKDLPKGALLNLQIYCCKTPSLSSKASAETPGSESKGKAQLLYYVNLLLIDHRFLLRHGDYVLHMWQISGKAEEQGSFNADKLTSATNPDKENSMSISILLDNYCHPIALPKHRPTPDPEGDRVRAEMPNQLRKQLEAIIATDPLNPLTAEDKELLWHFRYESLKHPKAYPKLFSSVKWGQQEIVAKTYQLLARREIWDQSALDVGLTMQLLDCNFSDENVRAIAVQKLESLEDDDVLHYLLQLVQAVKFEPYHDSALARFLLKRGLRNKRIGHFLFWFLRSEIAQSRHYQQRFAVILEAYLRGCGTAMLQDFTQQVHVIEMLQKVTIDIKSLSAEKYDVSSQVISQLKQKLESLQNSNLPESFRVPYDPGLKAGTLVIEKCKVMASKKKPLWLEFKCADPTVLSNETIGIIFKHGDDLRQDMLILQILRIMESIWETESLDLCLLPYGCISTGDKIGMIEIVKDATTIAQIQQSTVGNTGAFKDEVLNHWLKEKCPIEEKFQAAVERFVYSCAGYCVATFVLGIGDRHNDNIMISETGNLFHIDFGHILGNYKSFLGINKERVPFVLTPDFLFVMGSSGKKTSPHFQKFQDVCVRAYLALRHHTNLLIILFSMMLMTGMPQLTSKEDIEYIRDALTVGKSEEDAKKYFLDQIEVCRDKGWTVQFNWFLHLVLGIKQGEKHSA
Protocol: (§5) PDGF-BB-induced AKT phosphorylation in Swiss-3T3 fibroblasts is mediated by p110α. C5a-induced AKT phosphorylation in RAW-264 murine macrophages is mediated exclusively by p110γ.
PI3Kγ-Dependent Cell-Based Assay: C5a-Mediated AKT Phosphorylation in RAW-264 Cells
RAW-264 macrophage cells (American Type Culture Collection) were cultured with Dulbecco's modified Eagle medium (DMEM) containing 10% fetal bovine serum and the antibiotics penicillin and streptomycin. Cells were seeded on a 96-well Tissue Culture Plate at 100,000 to 200,000 cells/well the day before the experiment. Next day, cells were starved for 2 hr in 0.1% FBS containing medium. The cells were pretreated with inhibitors or DMSO for 2 hr and stimulated for 5 min with 75 ng/ml C5a (R&D) at 37° C. in 5% CO2. The culture medium was removed and cells were fixed for 20 min at room temperature by addition of 100 μl of 4% cell fixing buffer to each well. AKT phosphorylation and total AKT was detected by ELISA.
(§6) Detection of Phospho-Ser-473 AKT and Total AKT by ELISA
(§7) The fixed cells were washed twice with 150 μl of wash buffer (WB) and quenched by incubating with 100 μl of Quenching Buffer for 20 min at room temperature. Cells were washed once with 150 μl WB and blocked by incubating with 100 μl of Blocking Buffer for 1 hr at room temperature. Cells were incubated with 50 μl of primary antibody diluted in Blocking Buffer, either phospho-Ser-473 AKT specific (1:150 dilution) or total-AKT antibody (1:200 dilution), to each specific well. The negative control wells contained 50 μl of Blocking Buffer. Plates were sealed with plate sealing film and incubated overnight at 4° C. Cells were washed twice with 150 μl WB followed by addition of 50 μl per well of DELFIA secondary antibody (50 ng/well, diluted in DELFIA Assay Buffer). After 2 hr incubation at room temperature, cells were washed 4 times with 150 μl of Europium Wash Solution followed by addition of 100 μl of DELFIA Enhancing Solution to each well. Plates were incubated for 5 min in the dark and fluorescent signal was read using SpectraMax M5™ (Molecular Devices). Total AKT level was determined to verify equal cell number per well. The average background fluorescence values from wells that received vehicle control in the absence of PDGF-BB or C5a were subtracted from all the values of experimental conditions. Fluorescence values corresponding to phosphorylated AKT from wells that received PDGF-BB or C5a were normalized to 100% and compound effect was plotted as % change relative to the vehicle control.

PI3Kγ (p110 gamma) = target: T3, PI3Kγ (p110 gamma) (Homo sapiens, UniProt P48736); experiment: PI3K biochemical enzyme assay (Adapta universal kinase assay), p110 gamma; details: for IC50: Table 2, PI3k biochemical assays, read-out: p120γ IC50
T3 construct: purchased Invitrogen
T3 sequence (P48736 whole entry): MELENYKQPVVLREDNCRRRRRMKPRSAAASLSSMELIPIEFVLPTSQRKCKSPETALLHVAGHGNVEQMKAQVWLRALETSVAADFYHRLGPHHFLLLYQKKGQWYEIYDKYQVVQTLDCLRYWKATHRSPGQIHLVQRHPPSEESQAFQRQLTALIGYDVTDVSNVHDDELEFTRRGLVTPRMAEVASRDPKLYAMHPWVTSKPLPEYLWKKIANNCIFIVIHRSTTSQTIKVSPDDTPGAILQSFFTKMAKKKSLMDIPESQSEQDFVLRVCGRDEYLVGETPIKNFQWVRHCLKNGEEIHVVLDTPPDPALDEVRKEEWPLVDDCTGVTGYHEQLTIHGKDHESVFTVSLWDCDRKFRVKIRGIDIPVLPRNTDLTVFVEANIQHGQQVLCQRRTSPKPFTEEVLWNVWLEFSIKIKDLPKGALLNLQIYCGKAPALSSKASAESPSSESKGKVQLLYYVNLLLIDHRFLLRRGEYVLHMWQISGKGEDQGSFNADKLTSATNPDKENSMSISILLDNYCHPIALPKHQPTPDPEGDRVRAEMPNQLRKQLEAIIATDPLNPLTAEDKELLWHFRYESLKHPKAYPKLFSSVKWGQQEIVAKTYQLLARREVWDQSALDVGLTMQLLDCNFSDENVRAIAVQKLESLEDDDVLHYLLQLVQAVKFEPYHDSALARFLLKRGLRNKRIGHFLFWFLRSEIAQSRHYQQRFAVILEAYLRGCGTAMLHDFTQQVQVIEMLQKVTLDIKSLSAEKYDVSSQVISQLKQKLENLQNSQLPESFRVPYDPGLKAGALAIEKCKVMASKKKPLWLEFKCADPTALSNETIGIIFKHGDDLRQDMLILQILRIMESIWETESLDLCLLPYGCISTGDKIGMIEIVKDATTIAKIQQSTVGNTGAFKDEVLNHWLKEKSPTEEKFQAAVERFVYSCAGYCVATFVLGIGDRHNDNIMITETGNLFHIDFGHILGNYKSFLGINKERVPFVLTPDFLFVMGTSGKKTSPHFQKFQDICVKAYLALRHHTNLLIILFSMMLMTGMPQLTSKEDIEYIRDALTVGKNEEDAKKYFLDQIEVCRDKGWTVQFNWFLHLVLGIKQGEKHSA
Protocol: as §1, §2, §3
The 2× p110 gamma/PIP2:PS mixture was prepared in 50 mM HEPES pH 7.5, 1 mM EGTA, 3 mM mgCl2. The final […] Kinase Reaction consisted of 3.5-26 ng p110 gamma and 50 μM PIP2:PS in 32.5 mM HEPES pH 7.5, 0.5 mM EGTA, 1.5 mM mgCl2. After the 1 hour Kinase Reaction incubation, 5 μL of Detection Mix was added.
as §4

PI3Kα = target: T4, PI3Kα (Mus musculus, UniProt P42337); experiment: PI3Kα-dependent cell-based assay: PDGF-BB mediated AKT phosphorylation in Swiss-3T3 cells; details: PDGF-BB-induced AKT phosphorylation, Swiss-3T3 fibroblasts
T4 construct: endogenous in cells; host or cells: Swiss-3T3 fibroblasts (ATCC)
Protocol: as §5
PI3Kα-Dependent Cell-Based Assay: PDGF-BB Mediated AKT Phosphorylation in Swiss-3T3 Cells
Swiss-3T3 fibroblasts (American Type Culture Collection) were cultured with DMEM containing 10% fetal bovine serum and the antibiotics penicillin and streptomycin. Cells were seeded on a 96-well Tissue Culture Plate at 25,000 cells/well and allowed to reach at least 90% confluency. The cells were starved for 2 to 12 hr in 0.1% FBS containing medium and then were pretreated with inhibitors or DMSO for 2 hr. The cells were stimulated for 15 min with 10 ng/ml PDGF-BB (Cell Signaling Technology) at 37° C. in 5% CO2. The culture medium was removed and cells were fixed for 20 min at room temperature by addition of 100 μl of 4% cell fixing buffer to each well. AKT phosphorylation and total AKT was detected by ELISA.
as §6, §7

Row | inhibition at 10 µM (PI3Kα (p110α/p85α)) | IC50 (PI3Kα (p110α/p85α)) | EC50 (PI3Kγ) | inhibition at 1 µM (PI3Kγ (p110 gamma); read-out: PI3Kγ % inhib) | inhibition at 10 µM (PI3Kγ (p110 gamma); read-out: PI3Kγ % inhib) | IC50 (PI3Kγ (p110 gamma)) | EC50 (PI3Kα) | inhibition at 1 µM (PI3Kα (p110α/p85α)) | inhibition at 0.1 µM (PI3Kγ (p110 gamma); 0.1 μM, read-out: PI3Kγ % inhib) | Compound
1 | 72% | > 10 µM | > 20 µM | 37% | 95% | 2.15 µM | > 20 µM |  |  | CCC(Nc1ncnc2[nH]cnc12)c1nc2cccc(F)c2nc1-c1ccccc1 (centres unmarked) [Compound Q9]
2 | 92% | 2.59 µM | 0.344 µM | 84% | 99% | 0.008 µM | 17.7 µM | 18% | 36% | Cc1cccc2nc(C(C)Nc3nc(N)nc4[nH]cnc34)c(-c3ccccc3)nc12 (centres unmarked) [Compound Q4]
3 | 97% | 0.404 µM | 0.628 µM | 79% | 98% | 0.002 µM | 14.3 µM | 41% |  | Cc1cccc2nc(C(C)Nc3nc(N)nc4[nH]cnc34)c(-c3ccc(F)cc3)nc12 (centres unmarked) [Compound Q5]
4 | 47% | > 10 µM | > 20 µM | 42% | 86% | 5.79 µM | > 20 µM |  |  | CC(Nc1ncnc2[nH]cnc12)c1nc2ccccc2nc1-c1cc(F)cc(F)c1 (centres unmarked) [Compound Q2, N-{1-[3-(3,5-difluorophenyl)quinoxalin-2-yl]ethyl}-9H-purin-6-amine]
5 | 65% | > 10 µM | > 20 µM | 51% | 94% | 2.07 µM | > 20 µM |  |  | Cc1cccc(-c2nc3ccccc3nc2C(C)Nc2ncnc3[nH]cnc23)c1 (centres unmarked) [Compound Q3]
6 | 89% | 6.92 µM | 4.62 µM | 78% | 99% | 0.147 µM | > 20 µM | 18% |  | CC(Nc1ncnc2[nH]cnc12)c1nc2ccccc2nc1-c1ccccc1 (centres unmarked) [Compound Q1]
7 | 77% | > 10 µM | > 20 µM | 44% | 96% | 0.762 µM | > 20 µM |  |  | CCC(Nc1ncnc2[nH]cnc12)c1nc2ccccc2nc1-c1ccccc1 (centres unmarked) [Compound Q12]
